Experimental data from patent publication US9381252B2, “Nanoparticles for encapsulation of compounds, the production and uses thereof” (UNIVERSIDAD DE NAVARRA, priority 2010, dated 2016).
Like-named read-outs stand apart in the source and are kept apart here.

Assay: Pharmacokinetic study, bioavailability of folic acid encapsulated in zein nanoparticles
Type: in vivo, male Wistar rats
Conditions: male, Wistar; for bioavailability: serum, rat, read-out: FR (relative bioavailability in percentage); for AUC: read-out: AUC (×10^4) (converted)
Experimental: The pharmacokinetic studies were carried out according to the rules of the ethics committee of the Institution as well as the European laws on experimental animals (86/609/EU). To that end, 20 male Wistar rats with an average weight of 200 g were subjected to normal conditions of light-darkness (12 hours-12 hours), and during the week before the study they were fed with a folic acid-deficient feed (Folic Acid Deficient Diet. TD. 95247. Harlan, USA) and water. Twelve hours before the administration of the formulations, the rats were isolated in metabolic cages without access to food, but with free access to drinking water.
The animals were divided into 4 treatment groups (5 rats per group). Only 1 mL of PBS (Phosphate Buffer, pH 7.4) was orally administered to the first of the group. The two following groups were treated with single oral doses of 1 mg/kg (200 μg/rat) of folic acid (Aditio, Panreac Quimica, Barcelona, Spain) incorporated in zein nanoparticles, or in free form (not encapsulated) dissolved in water. 1 mL of each of the different formulations dispersed in water was administered through a gastroesophageal cannula. Finally, the same dose of free folic acid (1 mg/kg) dissolved in phosphate buffer (PBS) (0.5 mL) was intravenously administered to the fourth group in the saphenous vein. Before the administration of the formulations, blood was extracted from the tail saphenous vein for the purpose of checking the baseline level of the vitamin in each rat. After the administration, a volume of blood of approximately 500 μL was extracted at different times using serum-separating tubes ([…] Microtube 1.1 mL Z-Gel). In all the cases, to prevent the pain of the rats, the extraction was carried out after anesthetizing the animal with inhalational anesthesia (isoflurane:oxygen), checking their vital signs at all times.
The blood volume was subsequently replaced by intraperitoneally administering 500 μL of physiological saline previously heated to the temperature of the animal. During this period, the condition of the animals (mobility, aggressiveness, allergic reactions and temperature) was examined, no significant changes being observed.
The quantification of folic acid in the serum samples, obtained after centrifuging the tubes with blood (6,000 rpm, 20 minutes, 20° C.), was carried out by means of an enzyme immunoassay technique. To that end, an Elisa Kit (Diagnostic automation, INC. Calabasas, Calif. USA) approved by the FDA for the quantitative determination of folic acid in foods, was used. The serum samples were quantified without prior treatment and following the manufacturer's specifications.
In all the studied cases, the differences in the serum folic acid concentrations found by both methods were less than 10%. Therefore, the enzyme immunoassay technique was chosen to quantify all the samples, since it requires a smaller amount of serum for the analysis thereof and is a simpler and quicker technique, the limit of detection of which (2 ng/mL) is much lower than that of the chromatographic technique.
The pharmacokinetic study was divided into three phases. The first of them consisted of intravenously administering 1 mg/kg of folic acid dissolved in phosphate buffer; the second of them consisted of orally administering to the rats 1 mL of phosphate buffer (PBS) to a group of 5 male Wistar rats (the baseline levels of the vitamin over time were studied in this group of rats). Finally, the third phase consisted of orally administering 1 mg/kg of (i) folic acid dissolved in water, (ii) folic acid encapsulated in zein nanoparticles to groups of rats formed by 5 animals.
After the administration, a volume of blood of approximately 500 μL was extracted at different times (0, 1, 2, 3, 8 and 24 hours) and collected in serum-separating tubes, subsequently recovering the blood volume of the animal with an equivalent volume of saline by intraperitoneal route. […]

[1] = rat serum, intravenous route, 1 mg/kg folic acid in PBS, mean ± SD, n = 5
[2] = rat serum, oral route, 1 mg/kg folic acid, mean ± SD, n = 5

bioavailability (intravenous route, 1 mg/kg folic acid in PBS): 100%
bioavailability (oral route, 1 mg/kg folic acid, mean ± SD, n = 5): 36.3 ± 7.2%
Cmax [1]: 4230 ± 1650 ng/mL
MRT [1]: 57.8 min
AUC [1]: 3580 ng·h/mL
Cmax [2]: 191 ± 41 ng/mL
MRT [2]: 384 min
Tmax [2]: 58.8 min
AUC [2]: 1300 ng·h/mL
Structure (SMILES): Nc1nc2ncc(CNc3ccc(C(=O)N[C@@H](CCC(=O)O)C(=O)O)cc3)nc2c(=O)[nH]1 [Non-encapsulated FA, folic acid]
